Assay: xn = mol fraction of the nth substance listed
Details: 101 kPa, Liquid; for speed of sound: Pulse-echo method

CCCCCCCCCO [nonan-1-ol] + Cc1ccc(C)cc1
Details | mass density, 293.15 K [kg/m3] | mass density, 303.15 K [kg/m3] | mass density, 313.15 K [kg/m3] | speed of sound, 293.15 K [m/s] | speed of sound, 303.15 K [m/s] | speed of sound, 313.15 K [m/s]
x2 = 0 | 827.7 | 820.82 | 813.88 | 1381 | 1347 | 1314
x2 = 0.0611 | 829.31 | 822.32 | 815.27 | 1378 | 1343 | 1310
x2 = 0.1108 | 830.62 | 823.55 | 816.41 | 1375 | 1340 | 1306
x2 = 0.1652 | 832.08 | 824.91 | 817.67 | 1372 | 1336 | 1301
x2 = 0.226 | 833.72 | 826.44 | 819.1 | 1368 | 1331 | 1296
x2 = 0.2932 | 835.56 | 828.16 | 820.7 | 1363 | 1326 | 1290
x2 = 0.3651 | 837.59 | 830.07 | 822.47 | 1357 | 1320 | 1284
x2 = 0.4248 | 839.34 | 831.7 | 824 | 1353 | 1315 | 1278
x2 = 0.5023 | 841.69 | 833.91 | 826.07 | 1347 | 1308 | 1272
x2 = 0.558 | 843.46 | 835.58 | 827.63 | 1343 | 1304 | 1267
x2 = 0.6359 | 846.06 | 838.04 | 829.95 | 1338 | 1299 | 1261
x2 = 0.7123 | 848.77 | 840.61 | 832.39 | 1334 | 1294 | 1256
x2 = 0.7744 | 851.12 | 842.84 | 834.5 | 1332 | 1291 | 1252
x2 = 0.8514 | 854.23 | 845.81 | 837.33 | 1330 | 1289 | 1249
x2 = 0.9286 | 857.59 | 849.02 | 840.41 | 1329 | 1288 | 1248

CCCCCCCCCO [nonan-1-ol] + Cc1cccc(C)c1
Details | mass density, 293.15 K [kg/m3] | mass density, 303.15 K [kg/m3] | mass density, 313.15 K [kg/m3] | speed of sound, 293.15 K [m/s] | speed of sound, 303.15 K [m/s] | speed of sound, 313.15 K [m/s]
x2 = 0 | 827.7 | 820.82 | 813.88 | 1381 | 1347 | 1314
x2 = 0.066 | 829.52 | 822.53 | 815.47 | 1378 | 1343 | 1310
x2 = 0.127 | 831.23 | 824.14 | 816.98 | 1375 | 1340 | 1306
x2 = 0.1739 | 832.57 | 825.39 | 818.16 | 1373 | 1337 | 1302
x2 = 0.2461 | 834.67 | 827.36 | 820.01 | 1368 | 1332 | 1297
x2 = 0.2913 | 836.03 | 828.63 | 821.21 | 1365 | 1328 | 1293
x2 = 0.3635 | 838.25 | 830.72 | 823.17 | 1361 | 1323 | 1287
x2 = 0.4422 | 840.77 | 833.1 | 825.42 | 1355 | 1317 | 1281
x2 = 0.4872 | 842.27 | 834.52 | 826.76 | 1353 | 1314 | 1277
x2 = 0.5648 | 844.95 | 837.08 | 829.18 | 1348 | 1309 | 1272
x2 = 0.6251 | 847.15 | 839.19 | 831.18 | 1345 | 1305 | 1268
x2 = 0.6873 | 849.54 | 841.47 | 833.35 | 1342 | 1302 | 1264
x2 = 0.7713 | 853 | 844.78 | 836.5 | 1339 | 1299 | 1260
x2 = 0.8507 | 856.56 | 848.19 | 839.76 | 1338 | 1298 | 1258
x2 = 0.9284 | 860.34 | 851.84 | 843.28 | 1339 | 1298 | 1257

CCCCCCCCCO [nonan-1-ol] + Cc1ccccc1C
Details | mass density, 293.15 K [kg/m3] | mass density, 303.15 K [kg/m3] | mass density, 313.15 K [kg/m3] | speed of sound, 293.15 K [m/s] | speed of sound, 303.15 K [m/s] | speed of sound, 313.15 K [m/s]
x2 = 0 | 827.7 | 820.82 | 813.88 | 1381 | 1347 | 1314
x2 = 0.0653 | 830.13 | 823.15 | 816.1 | 1380 | 1345 | 1312
x2 = 0.136 | 832.82 | 825.73 | 818.58 | 1378 | 1343 | 1309
x2 = 0.1773 | 834.44 | 827.29 | 820.07 | 1377 | 1341 | 1307
x2 = 0.2281 | 836.48 | 829.25 | 821.95 | 1375 | 1339 | 1304
x2 = 0.2834 | 838.77 | 831.45 | 824.06 | 1373 | 1336 | 1301
x2 = 0.3463 | 841.46 | 834.04 | 826.55 | 1370 | 1334 | 1298
x2 = 0.4203 | 844.78 | 837.24 | 829.63 | 1368 | 1330 | 1295
x2 = 0.4761 | 847.41 | 839.78 | 832.07 | 1366 | 1328 | 1292
x2 = 0.5478 | 850.96 | 843.21 | 835.38 | 1364 | 1326 | 1289
x2 = 0.6327 | 855.43 | 847.54 | 839.57 | 1362 | 1323 | 1286
x2 = 0.7121 | 859.93 | 851.92 | 843.83 | 1361 | 1322 | 1285
x2 = 0.7974 | 865.14 | 856.99 | 848.77 | 1361 | 1322 | 1284
x2 = 0.8695 | 869.88 | 861.63 | 853.31 | 1363 | 1322 | 1284
x2 = 0.9287 | 874.08 | 865.73 | 857.34 | 1365 | 1324 | 1285
